In ChEMBL document CHEMBL1143732, “3-Hydroxy-1,5-dihydro-pyrrol-2-one derivatives as advanced inhibitors of HIV integrase” (Bioorg Med Chem, 2007):

Tests used:
[1] = Inhibition of HIV integrase by MWPA-Mn enzymatic assay; set-up: species or system Human immunodeficiency virus
[2] = Inhibition of HIV integrase by MWPA-Mg enzymatic assay; set-up: species or system Human immunodeficiency virus
[3] = test system: Human immunodeficiency virus; experiment: Antiviral activity against HIV; format: functional, organism-based; settings: Human immunodeficiency virus 1

Structure (SMILES)	IC50 [1] [nM]	IC50 [2] [nM]	EC50 [3] [nM]
CNC(=O)/C(O)=C/c1cc(CCc2ccccc2)ncn1	39000	11000	24000
O=C(/C(O)=C/c1cc(CCc2ccccc2)ncn1)N1CCOCC1	262000	236000	> 59000
CN1CC(c2cc(CCc3ccc(F)cc3)ncn2)=C(O)C1=O	320	320	800
CN1CC(c2cc(OCc3ccc(F)cc3)ncn2)=C(O)C1=O	300	63	320
O=C1C(O)=C(c2cc(OCc3ccc(F)cc3)ncn2)CN1CCO		46	380
COCCN1CC(c2cc(OCc3ccc(F)cc3)ncn2)=C(O)C1=O		53	470
CC(C)N1CC(c2cc(OCc3ccc(F)cc3)ncn2)=C(O)C1=O		82	1400
COc1ccc(CN2CC(c3cc(OCc4ccc(F)cc4)ncn3)=C(O)C2=O)cc1		140	3300
O=C1NCC(C(=O)c2ccc(Cc3ccc(F)cc3)o2)=C1O		100	930
CC(C)N1CC(C(=O)c2ccc(Cc3ccc(F)cc3)o2)=C(O)C1=O		79	550
COCCN1CC(C(=O)c2ccc(Cc3ccc(F)cc3)o2)=C(O)C1=O		160	670
COc1ccc(N2CC(C(=O)c3ccc(Cc4ccc(F)cc4)o3)=C(O)C2=O)cc1		170	13000
O=C(O)/C(O)=C/c1cc(CCc2ccccc2)ncn1	37	9600	34000
NC(=O)/C(O)=C/c1cc(CCc2ccccc2)ncn1	71000	6700	49000
O=C(O)/C(O)=C/c1ccc(Oc2ccc(F)cc2)cn1	110	8700	> 73000
O=C(C1=C(O)C(=O)N(Cc2ccccc2)C1)c1ccc(Cc2ccc(F)cc2)o1		180	7400
O=C(C1=C(O)C(=O)N(CCN2CCOCC2)C1)c1ccc(Cc2ccc(F)cc2)o1		180	3400
O=C(O)/C(O)=C/c1cc(OCc2ccc(F)cc2)ccn1	14	93	7900
O=C(C1=C(O)C(=O)N(C2CCCC2)C1)c1ccc(Cc2ccc(F)cc2)o1		130	1500
CN1CC(c2ccc(Cc3ccc(F)cc3)cn2)=C(O)C1=O	< 21	37	170
O=C(O)/C(O)=C/c1cc(CCc2ccc(F)cc2)ccn1	59	1800	27000
O=C1NCC(c2cc(OCc3ccc(F)cc3)ncn2)=C1O		40	240
CN1CC(C(=O)c2ccc(Cc3ccc(F)cc3)o2)=C(O)C1=O		82	630
O=C(C1=C(O)C(=O)N(CCO)C1)c1ccc(Cc2ccc(F)cc2)o1		75	5500
O=C(O)/C(O)=C/c1ccc(OCc2ccc(F)cc2)cn1	66	480	45700
O=C(O)/C(O)=C/c1ccc(Cc2ccc(F)cc2)cn1	95	1400	8800
CN1CC(c2ccc(OCc3ccc(F)cc3)cn2)=C(O)C1=O	< 21	30	180
CN1CC(c2ccc(Oc3ccc(F)cc3)cn2)=C(O)C1=O	< 21	80	1900
CCCN1CC(c2cc(OCc3ccc(F)cc3)ncn2)=C(O)C1=O		270	9000
O=C(/C=C(\O)c1nc[nH]n1)c1ccc(Cc2ccc(F)cc2)o1 [S-1360]			200
